According to ChEMBL document CHEMBL1201862, “PubChem BioAssay data set” (2004):
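Cultured in 96-well plates, cells were exposed to test compound for 48 hours across five concentrations. GI50 is the concentration that inhibits growth by half.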 Active and inactive are the calls of the source. Cut-off read from the data, not from the text of the source: active = GI50 up to about 1.1 µM and inactive = higher.

What was measured:
Assay in all cases: NCI tumour cell line growth inhibition, 48 h
[1] = system: MDA-MB-435
[2] = system: NCI-H522
[3] = system: OVCAR-4
[4] = system: UACC-257
[5] = system: 786-0
[6] = system: HCT-15
[7] = system: HL-60
[8] = system: OVCAR-5
[9] = system: U-251
[10] = system: MCF7
[11] = system: SK-MEL-5
[12] = system: SR
[13] = system: LOX IMVI
[14] = system: NCI-H23
[15] = system: T47D
[16] = system: MOLT-4
[17] = system: TK-10
[18] = system: SK-OV-3
[19] = system: RPMI-8226

| SMILES | GI50 [1] | GI50 [2] | GI50 [3] | GI50 [4] | GI50 [5] | GI50 [6] [µM] | GI50 [7] | GI50 [8] | GI50 [9] | GI50 [10] | GI50 [11] | GI50 [12] | GI50 [13] | GI50 [14] | GI50 [15] | GI50 [16] | GI50 [17] | GI50 [18] | GI50 [19] |
| --- | --- | --- | --- | --- | --- | --- | --- | --- | --- | --- | --- | --- | --- | --- | --- | --- | --- | --- | --- |
| COc1cc(OC2OC(CO)C(O)C(O)C2O)c2c(c1)O[C@@H]1[C@H](O)Oc3cc(OC)c(OC)cc3[C@]1(O)C2=O (stereo not given in full) | > 25 µM (inactive) | > 25 µM (inactive) | > 25 µM (inactive) | > 25 µM (inactive) | > 25 µM (inactive) | > 25 | > 25 µM (inactive) | > 25 µM (inactive) | > 25 µM (inactive) | > 25 µM (inactive) | > 25 µM (inactive) | > 25 µM (inactive) | > 25 µM (inactive) | > 25 µM (inactive) | > 25 µM (inactive) | > 25 µM (inactive) | > 25 µM (inactive) | > 25 µM (inactive) | > 25 µM (inactive) |
| C=C1C(=O)O[C@@H]2[C@H]1C[C@H](I)[C@@]1(C)CC[C@H](O1)[C@](C)(I)CCCC(C)[C@@H]2O (stereo not given in full) | 4.9 µM (inactive) | 0.311 µM (active) | 6.32 µM (inactive) | 6.1 µM (inactive) | 1.49 µM (inactive) | 1.76 | 1.31 µM (inactive) | 8.69 µM (inactive) | 6.07 µM (inactive) | 2.29 µM (inactive) | 3.29 µM (inactive) | 2 µM (inactive) | 1.32 µM (inactive) | 7.43 µM (inactive) | 3.79 µM (inactive) | 1.49 µM (inactive) | 1.75 µM (inactive) | 16.6 µM (inactive) | 2.61 µM (inactive) |
| O=c1c(-c2ccc(O)cc2)coc2cc(OC3OC(CO)C(O)C(O)C3O)cc(O)c12 (stereo not given) | > 10 µM (inactive) | 45.7 µM (inactive) | > 10 µM (inactive) | > 100 µM (inactive) | 75.5 µM (inactive) | > 100 | > 10 µM (inactive) | > 10 µM (inactive) | > 10 µM (inactive) | > 10 µM (inactive) | > 10 µM (inactive) | 30.3 µM (inactive) | 79.8 µM (inactive) | > 10 µM (inactive) | > 10 µM (inactive) | 43.1 µM (inactive) | 33 µM (inactive) | > 10 µM (inactive) | 51.8 µM (inactive) |
| COC1=CC(=O)c2c(cc(COP(=O)(N(C)CCBr)N(C)CCBr)n2C)C1=O | 1.09 µM (active) | 0.281 µM (active) | 5.32 µM (inactive) | 2.7 µM (inactive) | < 0.0204 µM (active) | 0.491 | 0.0543 µM (active) | 0.583 µM (active) | 0.0419 µM (active) | < 0.0182 µM (active) | 1.07 µM (active) | < 0.01 µM (active) | < 0.0238 µM (active) | < 0.0212 µM (active) | 0.55 µM (active) | < 0.0173 µM (active) | 0.247 µM (active) | 0.918 µM (active) | 0.385 µM (active) |
| N#Cc1nc(C#N)n(S(=O)(=O)c2ccccc2)c1NS(=O)(=O)c1ccccc1 | > 100 µM (inactive) | > 100 µM (inactive) | > 100 µM (inactive) | > 100 µM (inactive) | > 100 µM (inactive) | > 100 | > 100 µM (inactive) | > 100 µM (inactive) | > 100 µM (inactive) | > 100 µM (inactive) | > 100 µM (inactive) | > 38.1 µM (inactive) | > 100 µM (inactive) | > 100 µM (inactive) | > 100 µM (inactive) | > 100 µM (inactive) | > 100 µM (inactive) | > 100 µM (inactive) | > 100 µM (inactive) |
| N#Cc1c(C#N)c(-c2ccco2)n(/N=C/c2ccco2)c1N | > 100 µM (inactive) | > 100 µM (inactive) | 76.9 µM (inactive) | > 100 µM (inactive) | 33.2 µM (inactive) | 29.6 | > 100 µM (inactive) | > 100 µM (inactive) | 24.6 µM (inactive) | 6.5 µM (inactive) | > 100 µM (inactive) | 26.1 µM (inactive) | 83.4 µM (inactive) | > 100 µM (inactive) | 2.93 µM (inactive) | 94.6 µM (inactive) | 96.6 µM (inactive) | 43.3 µM (inactive) | > 100 µM (inactive) |
| CCOC(=O)NN(C(=O)OCC)c1c(C)cc(C)cc1C | > 100 µM (inactive) | > 100 µM (inactive) | > 100 µM (inactive) | > 100 µM (inactive) | > 100 µM (inactive) | > 100 | > 100 µM (inactive) | > 100 µM (inactive) | > 100 µM (inactive) | > 100 µM (inactive) | > 100 µM (inactive) | > 100 µM (inactive) | 95.3 µM (inactive) | > 100 µM (inactive) | > 100 µM (inactive) | > 100 µM (inactive) | > 100 µM (inactive) | > 100 µM (inactive) | > 100 µM (inactive) |
| CCOC(=O)CN1C(=O)C(=O)N(c2ccc(OC)c3ccccc23)C1=O | > 100 µM (inactive) | > 100 µM (inactive) | > 100 µM (inactive) | > 100 µM (inactive) | > 100 µM (inactive) | > 100 | > 100 µM (inactive) | > 100 µM (inactive) | > 100 µM (inactive) | > 100 µM (inactive) | > 100 µM (inactive) | > 100 µM (inactive) | > 100 µM (inactive) | > 100 µM (inactive) | > 100 µM (inactive) | > 100 µM (inactive) | > 100 µM (inactive) | > 100 µM (inactive) | > 100 µM (inactive) |
| COc1cccc(-c2ccc3c4c2O[C@H]2C(=O)CC[C@@]5(O)[C@@H](C3)N(CC3CC3)CC[C@]425)c1 | 12.9 µM (inactive) | 17.7 µM (inactive) | 15.1 µM (inactive) | 25.9 µM (inactive) | 16.1 µM (inactive) | 13.6 | 19.1 µM (inactive) | 17.9 µM (inactive) | 16.2 µM (inactive) | 16 µM (inactive) | 14.8 µM (inactive) | 10.3 µM (inactive) | 16.3 µM (inactive) | 24.9 µM (inactive) | 18.4 µM (inactive) | 10.2 µM (inactive) | 17.3 µM (inactive) | 18.7 µM (inactive) | 12.6 µM (inactive) |
| C/C(=N/NC(=S)Nc1ccccc1Cl)c1ccccn1 | 0.665 µM (active) | 1.11 µM (active) | 0.249 µM (active) | < 0.0151 µM (active) | 0.0889 µM (active) | < 0.0165 | < 0.0113 µM (active) | < 0.0211 µM (active) | 0.0418 µM (active) | < 0.0119 µM (active) | 0.0753 µM (active) | < 0.0139 µM (active) | 0.01 µM (active) | < 0.0161 µM (active) | < 0.0371 µM (active) | < 0.0109 µM (active) | 0.113 µM (active) | 0.043 µM (active) | < 0.0149 µM (active) |
| O=C1Oc2ccccc2C1C/C(=N\Nc1ccccc1)c1ccccc1O (stereo not given) | 27.2 µM (inactive) | 38.2 µM (inactive) | 32.7 µM (inactive) | 28.8 µM (inactive) | 36.1 µM (inactive) | 34.3 | 34.2 µM (inactive) | > 100 µM (inactive) | 40.3 µM (inactive) | 36.5 µM (inactive) | 33.9 µM (inactive) | 27.4 µM (inactive) | 11.5 µM (inactive) | 22.2 µM (inactive) | 11.3 µM (inactive) | 29.9 µM (inactive) | 48.9 µM (inactive) | 62.1 µM (inactive) | 45.2 µM (inactive) |
| CC(=O)C1=C(C)N(c2ccc(C)cc2)C2(O)C3=C(C(=O)c4ccccc4C3=O)C(O)=CC12Cl (stereo not given) | 3.79 µM (inactive) | 6.14 µM (inactive) | 17.1 µM (inactive) | 9.38 µM (inactive) | 25.4 µM (inactive) | 19.8 | 4.31 µM (inactive) | 25.5 µM (inactive) | 11.7 µM (inactive) | 12.1 µM (inactive) | 6.92 µM (inactive) | 7.06 µM (inactive) | 12.1 µM (inactive) | 12.7 µM (inactive) | 26.7 µM (inactive) | 26.7 µM (inactive) | 28.4 µM (inactive) | 55.1 µM (inactive) | 6.5 µM (inactive) |
| Cc1nc(N)sc1C(=O)Nc1nc[nH]n1 | > 100 µM (inactive) | > 100 µM (inactive) | > 100 µM (inactive) | > 100 µM (inactive) | > 100 µM (inactive) | > 100 | 13.3 µM (inactive) | > 100 µM (inactive) | > 100 µM (inactive) | > 100 µM (inactive) | > 100 µM (inactive) | 14.1 µM (inactive) | > 100 µM (inactive) | > 100 µM (inactive) | > 100 µM (inactive) | 52.1 µM (inactive) | > 100 µM (inactive) | > 100 µM (inactive) | > 100 µM (inactive) |
| C[N+](C)([O-])CCC=C1c2ccccc2CCc2ccccc21 | 15.7 µM (inactive) | 16.6 µM (inactive) | 28.2 µM (inactive) | 35.5 µM (inactive) | 4.79 µM (inactive) | 27.7 | 12.6 µM (inactive) | 33.3 µM (inactive) | 18.2 µM (inactive) | 19.9 µM (inactive) | 17.7 µM (inactive) | 16.7 µM (inactive) | 1.14 µM (inactive) | 34.1 µM (inactive) | 22.2 µM (inactive) | 17.2 µM (inactive) | 53.2 µM (inactive) | 37.8 µM (inactive) | 11.5 µM (inactive) |
| CCOC(=O)N(C)CCC1CC=CC(=O)C1c1cccc(OC)c1OC (stereo not given) | 10.6 µM (inactive) | 13.6 µM (inactive) | 28 µM (inactive) | 13.4 µM (inactive) | 17 µM (inactive) | 14 | 19.4 µM (inactive) | 17.3 µM (inactive) | 16.7 µM (inactive) | 16.9 µM (inactive) | 9.53 µM (inactive) | 14.3 µM (inactive) | 38.7 µM (inactive) | 14 µM (inactive) | 21.4 µM (inactive) | 22.5 µM (inactive) | 22.5 µM (inactive) | 37.4 µM (inactive) | 14.2 µM (inactive) |
